# Test results: patent US20190137505A1 (THE ARIZONA BOARD OF REGENTS ON BEHALF OF THE UNIVERSITY OF …, priority 2015, published 2019)
# Entries after “also recorded” stand apart in the source; their conditions may differ.
# Target: T1, plasminogen (Homo sapiens, UniProt P00747)
# T1 construct: Glu-Pg, uPA, tPA, fibrinogen, and chromogenic substrate for Pn were purchased from Molecular Innovations (Novi, Mich.); purchased Molecular Innovations (Novi, Mich.)
# Test: LC-MS/MS identification of sites of MG adduction on plasminogen in vitro (Tables 1 and 12)
# Settings: 500 μM MG, 24 hr
# Method: 10 μg Pg was incubated with MG (50-500 μM) in tris-buffered saline (TBS) for 24 hours at 37° C. Following modification, sample volumes were increased to 150 μL and placed in 5 kDa spin filters to reduce volume and remove excess MG from solution.
# MG-modified (500 μM) and unmodified Pg control (same incubation conditions without MG) were added to 250 μL amount of rehydration buffer (6M urea, 2M thiourea, 2% CHAPS, 100 mM DTT, 0.5% 3-10 ampholytes) and 5 μL of 3-10 ampholytes (Bio-Rad). Sample rehydrated with a 13 cm 4-7 pH isoelectric focusing strip (GE Healthcare) overnight. Following rehydration, strips were placed in a Bio-Rad PROTEAN IEF Cell focusing instrument. Strips were first focused for 1 hour at 500 V, and then run at a maximum of 8,000V until the strips have reached a final total of 45,000 V/hrs at which point gels are held at 500V until removed. Focused strips were removed, reduced with DTT, cysteines carbamidomethylated with iodoacetamide, and run on a 4-20% gradient Criterion gel for 55 minutes at 200V. Gels were stained for stained according to manufacturer instructions with Imperial Blue Protein (ThermoScientific, Rockford, Ill.) and destained immediately with water. Gel bands were excised and trypsin digested.
# Coomassie stained gel-bands were excised and washed in ddH2O for 15 min. H2O was removed and bands were incubated in 50/50 acetonitrile (ACN):ddH2O for 15 min. ACN:ddH2O was removed and bands were incubated with ACN for 5 min. ACN was removed and gels were incubated with 100 mM ammonium bicarbonate (AMBIC). An equal volume of ACN was added to make 1:1 solution and was incubated for 15 min. The ACN/AMBIC solution was removed and remaining gel bands were dried by speed-vacuum. 10 mM dithiothreitol (DTT) was added to each band and incubated at 56° C. for 45 min. DTT was removed and sample brought to room temperature (RT). Iodoacetamide (55 mM) was added to each sample and incubated at RT for 30 min in dark. Iodoacetamide was removed and 100 mM AMBIC was added and bands were incubated for 5 min. An equal volume of ACN was added to make a 1:1 solution and incubated for 15 min. The ACN/AMBIC solution was removed and bands were dried by speed-vacuum. Bands were digested with trypsin (400 ng/band) in 50 mM AMBIC and incubated on ice for 45 min. Tryptic solution was removed and 50 mM AMBIC was added to each band and incubated overnight at 37° C. to complete digestion. Digests were acidified using 10% trifluoroacetic acid (TFA). Supernatant was saved. Band was covered with TFA:ACN (0.1%:60%) and sonicated at 20° C. water bath for 30 min. Supernatant was combined with previous fraction. Sampled were speed vacuumed to a final volume of 10 μL prior to LC-MS/MS analysis on an LTQ Orbitrap Velos mass spectrometer as described below.
# LC-MS/MS analysis of in-gel trypsin digested-proteins (Shevchenko et al., 1996) was carried out using a LTQ Orbitrap Velos mass spectrometer (Thermo Fisher Scientific, San Jose, Calif.) equipped with an Advion nanomate ESI source (Advion, Ithaca, N.Y.), following ZipTip (Millipore, Billerica, Mass.) C18 sample clean-up according to the manufacturer's instructions. Peptides were eluted from a C18 precolumn (100-μm id×2 cm, Thermo Fisher Scientific) onto an analytical column (75-μm ID×10 cm, C18, Thermo Fisher Scientific) using a 5-20% gradient of solvent B (acetonitrile, 0.1% formic acid) over 65 minutes, followed by a 20-35% gradient of solvent B over 25 minutes, all at a flow rate of 400 nl/min. Solvent A consisted of water and 0.1% formic acid. Data dependent scanning was performed by the Xcalibur v 2.1.0 software (Andon et al., 2002) using a survey mass scan at 60,000 resolution in the Orbitrap analyzer scanning m/z 350-1600, followed by collision-induced dissociation (CID) tandem mass spectrometry (MS/MS) of the fourteen most intense ions in the linear ion trap analyzer. […]
# T1 sequence (P00747 20-810 limits assumed): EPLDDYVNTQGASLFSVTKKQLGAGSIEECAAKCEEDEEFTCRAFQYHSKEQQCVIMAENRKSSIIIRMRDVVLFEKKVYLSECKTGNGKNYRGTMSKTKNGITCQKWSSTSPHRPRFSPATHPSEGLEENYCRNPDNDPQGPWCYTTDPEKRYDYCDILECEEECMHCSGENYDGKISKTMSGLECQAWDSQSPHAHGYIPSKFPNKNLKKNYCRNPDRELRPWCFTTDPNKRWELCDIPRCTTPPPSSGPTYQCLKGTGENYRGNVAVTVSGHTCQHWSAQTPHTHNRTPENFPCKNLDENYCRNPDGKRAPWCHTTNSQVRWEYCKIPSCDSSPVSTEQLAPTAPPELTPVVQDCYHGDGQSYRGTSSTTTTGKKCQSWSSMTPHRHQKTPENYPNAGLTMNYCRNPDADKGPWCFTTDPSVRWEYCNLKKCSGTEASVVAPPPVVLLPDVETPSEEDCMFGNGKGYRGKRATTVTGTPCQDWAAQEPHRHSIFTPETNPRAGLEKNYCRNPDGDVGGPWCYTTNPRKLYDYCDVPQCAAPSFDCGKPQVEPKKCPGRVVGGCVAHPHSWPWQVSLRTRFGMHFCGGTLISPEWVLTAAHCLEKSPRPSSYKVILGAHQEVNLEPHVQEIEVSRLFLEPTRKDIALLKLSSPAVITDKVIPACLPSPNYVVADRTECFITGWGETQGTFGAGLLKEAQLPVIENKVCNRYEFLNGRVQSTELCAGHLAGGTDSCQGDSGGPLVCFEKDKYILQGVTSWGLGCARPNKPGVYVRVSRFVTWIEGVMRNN
smiles,measurement,setting,value
"CC(=O)C=O [MG, Methylglyoxal]",Modifications,plasminogen site 43,MG-HI
same,Modifications,plasminogen site 61,MG-DH; also recorded: MG-HI
same,Modifications,plasminogen site 68,MG-DH; also recorded: MG-HI
same,Modifications,plasminogen site 70,MG-DH; also recorded: MG-HI
same,Modifications,plasminogen site 115,MG-HI
same,Modifications,plasminogen site 117,MG-HI; also recorded: MG-DH
same,Modifications,plasminogen site 134,MG-DH
same,Modifications,plasminogen site 220,MG-DH; also recorded: MG-HI
same,Modifications,plasminogen site 223,MG-HI
same,Modifications,plasminogen site 234,MG-DH
same,Modifications,plasminogen site 242,MG-DH; also recorded: MG-HI
same,Modifications,plasminogen site 265,MG-DH; also recorded: MG-HI
same,Modifications,plasminogen site 290,MG-HI
same,Modifications,plasminogen site 312,MG-DH; also recorded: MG-HI
same,Modifications,plasminogen site 324,MG-HI; also recorded: MG-DH
same,Modifications,plasminogen site 389,MG-HI; also recorded: MG-DH
same,Modifications,plasminogen site 474,MG-HI; also recorded: MG-DH
same,Modifications,plasminogen site 493,MG-HI; also recorded: MG-DH
same,Modifications,plasminogen site 504,MG-HI; also recorded: MG-DH
same,Modifications,plasminogen site 530,MG-HI; also recorded: MG-DH
same,Modifications,plasminogen site 561,MG-HI; also recorded: MG-DH
same,Modifications,plasminogen site 582,MG-HI; also recorded: MG-DH
same,Modifications,plasminogen site 644,MG-HI
same,Modifications,plasminogen site 712,MG-DH; also recorded: MG-HI
same,Modifications,plasminogen site 767,MG-HI; also recorded: MG-DH
same,Modifications,plasminogen site 779,MG-HI; also recorded: MG-DH
same,Modifications,plasminogen site 789,MG-HI; also recorded: MG-DH
same,Modifications,"plasminogen sites 115/117 on one peptide, two adducts",MG-HI;; also recorded: MG-HI; also recorded: MG-DH;; also recorded: MG-DH
same,Modifications,"plasminogen sites 220/223 on one peptide, two adducts",MG-HI;; also recorded: MG-DH; also recorded: MG-HI; also recorded: MG-DH;
same,Modifications,"plasminogen sites 312/324 on one peptide, two adducts",MG-DH;; also recorded: MG-HI; also recorded: MG-DH; also recorded: MG-HI;
same,Modifications,"plasminogen sites 474/493 on one peptide, two adducts",MG-DH;; also recorded: MG-HI; also recorded: MG-HI;
same,Modifications,"plasminogen sites 489/504 on one peptide, two adducts",MG-HI;; also recorded: MG-DH
same,Modifications,"plasminogen sites 779/789 on one peptide, two adducts",MG-HI;; also recorded: MG-DH; also recorded: MG-HI; also recorded: MG-DH;
same,Spectra Observed,"site 43, MG-HI, C(+57)EEDEEFTC(+57)RAFQYHSK",1
same,Spectra Observed,"site 61, MG-DH, EQQC(+57)VIMAENRK",3
same,Spectra Observed,"site 61, MG-HI, EQQC(+57)VIMAENRK",4
same,Spectra Observed,"site 68, MG-DH, SSIIIRMR",2
same,Spectra Observed,"site 68, MG-HI, KSSIIIRMR",1
same,Spectra Observed,"site 70, MG-DH, M(+16)RDVVLFEK",2
same,Spectra Observed,"site 70, MG-DH, MRDVVLFEK",7
same,Spectra Observed,"site 70, MG-DH, MRDVVLFEKK",2
same,Spectra Observed,"site 70, MG-HI, M(+16)RDVVLFEK",4
same,Spectra Observed,"site 70, MG-HI, MRDVVLFEK",4
same,Spectra Observed,"site 70, MG-HI, MRDVVLFEKK",4
same,Spectra Observed,"site 115, MG-HI, WSST SPHRPR",4
same,Spectra Observed,"site 117, MG-DH, WSSTSPHRPRFSPATHPSEGLEENYC(+57)R",9
same,Spectra Observed,"site 117, MG-HI, WSSTSPHRPRFSPATHPSEGLEENYC(+57)R",9
same,Spectra Observed,"site 134, MG-DH, FSPATHPSEGLEENYCRNPDNDPQGPWC(+57)YTTDPEKR",1
same,Spectra Observed,"site 220, MG-DH, NPDRELRPWC(+57)FTTDPNK",1
same,Spectra Observed,"site 220, MG-DH, NPDRELRPWC(+57)FTTDPNKR",6
same,Spectra Observed,"site 220, MG-HI, NPDRELRPWC(+57)FTTDPNK",5
same,Spectra Observed,"site 223, MG-HI, ELRPWC(+57)FTTDPNKR",4
same,Spectra Observed,"site 223, MG-HI, NPDRELRPWC(+57)FTTDPNKR",11
same,Spectra Observed,"site 234, MG-DH, RWELC(+57)DIPR0",2
same,Spectra Observed,"site 242, MG-DH, WELC(+57)DIPRC(+57)TTPPPSSGPTYQC(+57)LK",6
same,Spectra Observed,"site 242, MG-HI, WELC(+57)DIPRC(+57)TTPPPSSGPTYQC(+57)LK",3
same,Spectra Observed,"site 265, MG-DH, GTGENYRGNVAVTVSGHTC(+57)QHWSAQTPHTHNR",7
same,Spectra Observed,"site 265, MG-HI, GTGENYRGNVAVTVSGHTC(+57)QHWSAQTPHTHNR",5
same,Spectra Observed,"site 290, MG-HI, GNVAVTVSGHTC(+57)QHWSAQTPHTHNRTPENFPC(+57)K, MH+ 3809.751",12
same,Spectra Observed,"site 290, MG-HI, GNVAVTVSGHTC(+57)QHWSAQTPHTHNRTPENFPC(+57)K, MH+ 3827.75",4
